Consider 79 molecules from the METLIN SMRT retention time set (Domingo-Almenara et al. 2019).

The nature of this series: gradient 5% acetonitrile 3 min, to 50% in 2 min, to 85% in 15 min, held 3 min, 100 µL/min. The settings on record: column: Zorbax Extend-C18 2.1 x 50 mm; eluents: water / acetonitrile, 0.1% formic acid. The essentials:
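Mixtures of ~100 pure standards were chromatographed on a Zorbax Extend-C18 column (2.1 × 50 mm, 1.8 μm) at 100 μL/min using water and acetonitrile, each with 0.1% formic acid. Detection used a quadrupole time-of-flight mass spectrometer in positive and negative ionization mode, and data collection spanned 3 months. Retention time was obtained from adduct peaks picked computationally and each checked manually.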
Take `COc1ccc(N2CCN(c3nccc4ccc(C(=O)NC5CCCCCC5)cc34)CC2)cc1`: the RP-LC retention time came to 835 s. Next, `Cc1cc2[nH]c(=O)[nH]c2cc1S(=O)(=O)Nc1cccc(Cl)c1`: 690 s. In turn, `CC(C(=O)NCc1ccco1)C1CCN(C(=O)c2cc3cc(Cl)ccc3[nH]2)CC1` (centres undefined) showed an RP-LC retention time of 841 s.

`COc1ccc(CNC(=O)N2CC(Oc3ccc(-c4nc(C)no4)cc3)C2)cc1` came in with an RP-LC retention time of 825 s. `Cc1cccc(-n2ncc(C(=O)N3CCN(c4ccccn4)CC3)c2-n2cccc2)c1` showed an RP-LC retention time of 688 s.

In the case of `O=C(CN1CCN(C(=O)Nc2ccc(Cl)cc2)CC1=O)NC1CC1`, the RP-LC retention time worked out at 605 s.

`CCOC(=O)c1cc2ccsc2n1CC(=O)NCc1ccc(C)cc1` had an RP-LC retention time of 981 s. `CCOc1ccccc1CNC(=O)C1CCCN(c2ccc(=O)n(-c3ccc(C)c(Cl)c3)n2)C1` (centres undefined) gave an RP-LC retention time of 828 s. The molecule `Cc1nn(-c2nc(-c3ccc(F)cc3)cs2)c(C)c1CC(=O)N1CCCC1` registered an RP-LC retention time of 1030 s. Molecule `O=C1C(c2cccnc2)N(Cc2cccs2)C(=O)CN1c1ccccc1` (centres undefined) gave an RP-LC retention time of 661 s. Next, `CC(C)c1noc(-c2ccnc(-n3cnc(C(=O)N(C)C4CCCCC4)c3)c2)n1`: 622 s; `Cc1cc(C)cc(NC(=O)C(=O)NCC(c2ccc3c(c2)CCCN3C)N2CCOCC2)c1` (centres undefined): 601 s; `CSc1cccc(NC(=O)N2CCC3(CC2)NC(=O)c2ccccc2O3)c1`: 793 s.

The molecule `O=C(COc1ccccc1F)N1CCC(Oc2nc3ccccc3s2)CC1` registered an RP-LC retention time of 986 s. Molecule `COc1ccc(-c2nc(-c3cccc(-c4ccnn4C)c3)no2)cc1F` registered an RP-LC retention time of 1130 s. As for `CCOC(=O)c1cc(C)nc2c1c(=O)n(Cc1ccc(F)cc1)c(=O)n2C`, the RP-LC retention time was found to be 1070 s. With `CCCn1cnnc1C1CCCCN1Cc1ccc(Br)o1` (centres undefined), the RP-LC retention time came out at 599 s. The molecule `COc1ccc(Cc2nnc(SCC(=O)Nc3nc(-c4ccccc4)cs3)o2)cc1` had an RP-LC retention time of 985 s. Next, `O=C(CSc1nc(-c2ccccc2)ns1)OCc1ccccc1`: 1160 s; `CCCNc1cc(N2CCCC(CCC(=O)Nc3ccccc3CC)C2)ncn1` (centres undefined): 735 s; `O=C(Cc1ccc(F)cc1)Nc1nnc(C2CC(=O)N(c3ccc(Cl)cc3)C2)o1` (centres undefined): 789 s. Consider `CCCCNC(=O)C1CCC(=O)N(c2ccc(OC)cc2)C1c1ccc(OC)c(OC)c1` (centres undefined), for which the RP-LC retention time was 658 s. The molecule `CC(C)c1ccc(NC(=O)C2CC(=O)N(CCc3c[nH]c4ccc(F)cc34)C2)cc1` (centres undefined) displayed an RP-LC retention time of 929 s. `CCOC(=O)c1c(C)[nH]c(C(=O)N2CCC(CC(=O)NCc3cccnc3)CC2)c1C` displayed an RP-LC retention time of 608 s. Consider `COc1cccc(C(=O)N2CCC3(CC2)NCc2ccccc2-n2ccnc23)c1`, for which the RP-LC retention time turned out to be 606 s. Next, `O=C(C1=NN(Cc2ccccc2)c2ccccc2S1(=O)=O)N1CCCC1`: 784 s; `COc1ccc(C(=O)N2CCN3CCS(=O)(=O)N(C4CC4)C(=O)C3C2)c(OC)n1` (centres undefined): 732 s. In turn, `Cc1ccc(C)c(-c2cc3c4nn(CC(=O)NC5CCCC5)c(=O)n4ccn3n2)c1` displayed an RP-LC retention time of 909 s. Regarding `Cc1cc(C)cc(OCc2nc(CCN(C)C(=O)NCc3ccccc3)no2)c1`, the RP-LC retention time worked out at 980 s. Molecule `O=C(C1CC(=O)N(c2n[nH]c3cccc(F)c23)C1)N1CCN(c2ccccc2)CC1` (centres undefined) displayed an RP-LC retention time of 718 s. `CCCn1cc(CCNC(=O)Nc2cc(Cl)ccc2C)c2cccnc21` returned an RP-LC retention time of 863 s. `CN(C)C(=O)OC1=C(c2ccccc2)Sc2ccccc2-n2cccc21` came in with an RP-LC retention time of 1250 s. As for `CCC(=O)N1CCc2cc(N3CC(C(=O)NCc4ccncc4)CC3=O)ccc21` (centres undefined), the RP-LC retention time was 578 s. As for `CCc1nnc(C2CCN(C(=O)c3ccc(F)cc3F)CC2)s1`, the RP-LC retention time was 770 s.

As for `CCn1cc(-c2ccc(C)cc2)cc1C(=O)NCc1cccnc1`, the RP-LC retention time stood at 713 s. For `COC1CN(c2ccc(C)cc2)C12CCN(C(=O)C1(c3ccccc3)CC1)CC2` (centres undefined), the RP-LC retention time amounted to 1100 s. On to `O=C(Oc1coc(CSc2ncccn2)cc1=O)c1cccs1`, for which the RP-LC retention time is 695 s. Consider `O=C(NCC(c1ccco1)N1CCOCC1)c1cc(-c2ccc3c(c2)CCCC3)on1` (centres undefined), for which the RP-LC retention time worked out at 827 s. `CCCOc1cccc(C(=O)N(Cc2ccc(Br)o2)C2CCS(=O)(=O)C2)c1` (centres undefined) gave an RP-LC retention time of 1010 s.

Regarding `CSc1ccc(-c2nc3cccc(C)n3c2Nc2ccc3c(c2)OCCO3)cc1`, the RP-LC retention time turned out to be 719 s. As for `Cc1cc(S(=O)(=O)[C@H]2CS(=O)(=O)C[C@@H]2N2CCN(c3ccccc3)CC2)ccc1F`, the RP-LC retention time was 994 s.

As to `O=C(Nc1ccc(SCc2nnc(-c3ccccc3)o2)cc1)C1CC1`, the RP-LC retention time amounted to 870 s. In the case of `COc1ccc2c(c1)C1(CCN(C(=O)c3ccccc3OC)C1)C(=O)N2C` (centres undefined), the RP-LC retention time came out at 725 s. In turn, `Cc1cccc(CNC(=O)C2c3ccccc3CC(=O)N2C)c1` (centres undefined) registered an RP-LC retention time of 748 s.

Regarding `COc1ccc(-c2nnc(-c3ccc(C)c(S(=O)(=O)N(C)C)c3)o2)cc1OC`, the RP-LC retention time was 878 s. Molecule `CCOc1ccc(NC(=O)c2cn3c4c(ccc(Cl)c4c2=O)OCC3)cc1` yielded an RP-LC retention time of 657 s.

`CCOc1ccc(-n2c(=O)c3sccc3n(Cc3nc(-c4ccc(C)c(C)c4)no3)c2=O)cc1` had an RP-LC retention time of 1130 s. For `CN(C)c1ccc(Nc2nc(-c3ccc(O)cc3O)cs2)cc1`, the RP-LC retention time came to 850 s. In turn, `COCC1CCN(C(=O)COc2ccc(NC(=O)C3CC3)cn2)CC1` displayed an RP-LC retention time of 650 s. As to `CCc1ccc(Oc2cc(N3CCC(C(=O)NC4CCC(C)CC4)CC3)ncn2)cc1` (centres undefined), the RP-LC retention time came out at 1120 s. Take `O=C(Cn1cccc1-c1nnc(C2CCC2)o1)NCCc1ccc(Cl)cc1`: the RP-LC retention time came out at 766 s. Next, `Cc1ccc(N2CCC(NC(=O)c3ccc(Br)o3)C2=O)cc1` (centres undefined): 812 s; `CCC(C)NC(=O)Cn1cnc2nc(N3CCCC(C(=O)NC4CC4)C3)sc2c1=O` (centres undefined): 610 s; `Cn1c(=O)sc2cc(S(=O)(=O)N3CCC(C(=O)N4CCCC4)CC3)ccc21`: 702 s.

With `Cc1nc2ncc(-c3ccnc(N4CCN(Cc5ccccc5)CC4)n3)c(C)n2n1`, the RP-LC retention time came out at 604 s.

Molecule `CS(=O)(=O)Nc1cccc(NC(=O)Cc2csc(NC(=O)c3ccsc3)n2)c1` gave an RP-LC retention time of 676 s.

For the molecule `Cc1noc(-c2ccnc(-n3cnc(C(=O)NCCc4ccc(Cl)cc4)c3)c2)n1`, the RP-LC retention time was determined as 683 s. The molecule `Cn1cccc1C(=O)C(=O)Nc1ccc(F)cc1Cl` registered an RP-LC retention time of 1070 s. Take `Cc1cccc(C)c1NC(=O)C1CCN(S(=O)(=O)c2ccc3c(c2)NC(=O)C(C)O3)CC1` (centres undefined): the RP-LC retention time was determined as 824 s. For `COc1ccc(CN2CCN(C(=O)C3=Cc4ccccc4OC3)CC2)c(OC)c1OC`, the RP-LC retention time came to 679 s.

For `C=CCN(CC=C)S(=O)(=O)c1ccc(C(=O)N2CCCc3ccccc32)cc1`, the RP-LC retention time worked out at 985 s.

`Cc1ccccc1-c1nc(-c2ccc3c(c2)oc(=O)n3C)no1` returned an RP-LC retention time of 1110 s. Next, `CCC(C)C(NC(=O)c1cccs1)C(=O)Nc1nc2ccccc2[nH]1` (centres undefined): 692 s; `CCCCOc1ccc(CNC(=O)C2CCN(Cc3cn(CC)c4ccc(OC)cc34)CC2)cc1`: 842 s; `COc1ccccc1C(=O)Nc1cnc(-c2cccc(Cl)c2)nc1`: 1180 s.

`Cn1cc(CC(=O)NCc2ccc(F)cc2Cl)c2cccnc21` came in with an RP-LC retention time of 727 s.

As to `CC(C)c1ccc(S(=O)(=O)N2CCc3c(c(-c4nnc(-c5ccccc5)o4)nn3C)C2)cc1`, the RP-LC retention time was 1110 s. `O=C(NCc1ccc2c(c1)OCO2)c1ccc2c(c1)N(Cc1ccccc1)C(=O)CO2`: the RP-LC retention time worked out at 857 s. As for `CCN1CCN(CCNC(=O)C2CCCN(S(=O)(=O)N(C)c3ccc(F)cc3)C2)CC1` (centres undefined), the RP-LC retention time is 551 s. As to `O=C1CC(NC(=O)c2cc(-c3ccc(F)cc3)n[nH]2)CN1` (centres undefined), the RP-LC retention time came to 604 s. In turn, `c1ccc(-c2csc(NCc3ccco3)n2)cc1` registered an RP-LC retention time of 912 s. `Cn1cc2c3c(cccc31)CN(C(=O)Nc1cc(Cl)ccc1Cl)CC2` displayed an RP-LC retention time of 1170 s. The same measure for `CC(Oc1ccccc1F)C(=O)Nc1ccc(-c2nc(-c3ccc(F)cc3)no2)cc1` (centres undefined): 1260 s; for `COc1ccc(C(=O)N2CCN(c3c(C)n(C)c(=O)n(C)c3=O)CC2)cc1`: 697 s; for `O=C(CCc1nnc2ccc(N3CCCC3)nn12)N1CCN(c2ccccn2)CC1`: 585 s. Next, `C=Cc1ccc(Cn2nc3ccc(S(=O)(=O)N4CCOCC4)cn3c2=O)cc1`: 864 s. In turn, `CCn1c(=O)sc2cc(S(=O)(=O)N3CCC(C(=O)Nc4ccc(C)cn4)CC3)ccc21` displayed an RP-LC retention time of 735 s.

`Cc1oc(-c2[nH]ncc2C(=O)N2CCOCC2)cc1S(=O)(=O)N1CCN(C)CC1` came in with an RP-LC retention time of 553 s. `O=C(O)Cn1nnc(-c2cc(N3CCC(Oc4cc(F)ccc4Br)CC3)no2)n1` showed an RP-LC retention time of 1000 s.
